In patent US20260184693A1, “INHIBITORS OF SOLUTE CARRIER FAMILY 6A MEMBER 19 (SLC6A19) AND METHODS OF USE THEREOF” (Maze Therapeutics, Inc., priority 2022, published 2026):

Tests used:
human SLC6A19 [1] = target: T1, human SLC6A19 (Homo sapiens, UniProt Q695T7); assay: Example B-1: L-[3H]leucine uptake, liquid scintillation, in CHO cells with doxycycline-inducible expression of human SLC6A19 and TMEM27; assay type: cell-based; settings: read-out: SLC6A19_Radioligand Uptake Assay IC50
T1 construct: expressed in transfected cells
T1 sequence (Q695T7 1-634): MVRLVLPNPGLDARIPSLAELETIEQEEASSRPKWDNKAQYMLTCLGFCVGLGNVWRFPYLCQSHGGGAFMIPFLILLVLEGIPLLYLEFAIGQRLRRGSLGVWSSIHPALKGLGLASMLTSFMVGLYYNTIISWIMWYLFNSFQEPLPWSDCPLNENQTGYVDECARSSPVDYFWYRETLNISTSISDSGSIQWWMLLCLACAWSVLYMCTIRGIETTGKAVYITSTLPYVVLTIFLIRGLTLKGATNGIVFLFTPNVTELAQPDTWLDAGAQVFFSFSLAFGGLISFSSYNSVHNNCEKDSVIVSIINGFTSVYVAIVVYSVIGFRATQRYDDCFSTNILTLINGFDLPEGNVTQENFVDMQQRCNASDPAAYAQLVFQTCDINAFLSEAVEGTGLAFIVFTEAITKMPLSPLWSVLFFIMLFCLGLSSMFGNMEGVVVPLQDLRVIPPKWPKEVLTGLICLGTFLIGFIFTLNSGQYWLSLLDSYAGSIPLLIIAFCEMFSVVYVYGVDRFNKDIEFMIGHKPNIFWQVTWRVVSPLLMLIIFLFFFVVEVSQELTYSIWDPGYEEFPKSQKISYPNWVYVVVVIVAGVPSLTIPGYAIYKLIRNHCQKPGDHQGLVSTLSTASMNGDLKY
T1 sequence (Q9HBJ8 15-222 partner): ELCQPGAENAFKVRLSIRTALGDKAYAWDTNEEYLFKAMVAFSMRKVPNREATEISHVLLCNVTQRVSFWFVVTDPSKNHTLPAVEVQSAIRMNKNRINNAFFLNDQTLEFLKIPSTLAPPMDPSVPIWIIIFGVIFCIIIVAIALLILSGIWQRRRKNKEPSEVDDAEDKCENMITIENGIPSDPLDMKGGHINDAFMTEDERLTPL
Description: CHO cells with doxycycline-inducible expression of human SLC6A19 and TMEM27 were maintained in T150 cell culture treated flasks using cell culture media, which consisted of 1×DMEM/F12 (Gibco, 11330057), 10% Tet System-Approved FBS (Gibco, A4736401), 100 U/mL Penicillin-Streptomycin (Gibco, 15140122), 1×GlutaMAX™ Supplement (Gibco, 35050061), 1 mM Sodium Pyruvate (Gibco, 11360070), 1.1 mg/mL Sodium Bicarbonate (Gibco, 25080094), 5 μg/mL Blasticidin (InvivoGen, ant-bl-1), 150 μg/mL Hygromycin B Gold (InvivoGen, ant-hg-5), and 500 μg/mL G418 (Sigma-Aldrich, G8168-100 mL). In preparation for the assay, this media was aspirated and 5 mL of TryμLE™ Express Enzyme (Gibco, 12605010) was added to each flask to initiate cell dissociation. The flasks were then incubated (humidified, 37° C. with 5% CO2) for 2 minutes. After incubation, 10 mL of pre-warmed cell culture media was added to each flask. The cell suspension was collected and centrifuged for 5 minutes at 200xg.
The supernatant was aspirated and the pellet was resuspended in 5 mL pre-warmed cell culture media. The resuspended cells were counted using the Countess Cell Counting Chamber (Invitrogen) and the cell concentration of the suspension was readjusted to 1 million live cells/mL using pre-warmed cell culture media. 25 uL/well (25,000 cells/well) of readjusted cell suspension was dispensed into Poly-D-Lysine 384-well white/clear plates (Corning, 354660) using a MultiDrop Combi (Thermo Electron Corp). To induce expression of Human SLC6A19 and TMEM27, 25 uL/well of cell culture media containing 2 μg/mL doxycycline was added to the first 23 columns of each plate resulting in a final concentration of […] doxycycline. 25 μL/well of cell culture media was added to the last column of each plate, to act as negative control wells for Human SLC6A19 and TMEM27 expression. Assay plates were then incubated (humidified, 37° C. with 5% CO2) for 18 hours. After incubation, the media was aspirated and the wells were washed 4 times with pre-warmed HBSS (Sigma-Aldrich, H8264-1L) using an Apricot S-Pipette S2 (Apricot Designs), such that 5 uL/well HBSS was remaining at the end of each wash. […] At this step, the final in-well DMSO concentration in the assay plate is 0.5%. All compounds were plated in a duplicate 8-point dilution series that consisted of 3-fold dilutions. […] Afterwards, 15 uL/well of 3.2 mM hot:cold leucine solution (1:15000 ratio of L-[3,4,5-3H(N)] Leucine (Perkin Elmer, NET460001MC) to L-Leucine (Sigma-Aldrich, L8912-25G) diluted with HBSS (Sigma-Aldrich, H8264-1L)) was added using the Viaflo 384 (Integra), for a final concentration of 1.6 mM hot:cold leucine solution. The plates were then incubated (humidified, 37° C. with 5% CO2) for 20 minutes to conduct the uptake reaction. Immediately after the incubation, the plates were washed 4 times with HBSS (Sigma-Aldrich, H8264-1L) using the ELx405 Microplate Washer (Biotek) to terminate the uptake reaction. After the washes, 50 uL/well Ultima Gold Scintillation Cocktail (Perkin Elmer, 6013326) was added to each well using the Viaflo 384 (Integra). The plates were then incubated (humidified, 37° C. with 5% CO2) on a plate shaker at 200 rpm for 2 hours. After incubation, the plates were removed from the shaker and kept at room temperature for 15 minutes.
Liquid scintillation analysis was performed using the MicroBeta2 Microplate Counter (Perkin Elmer). Activity (%) was derived by normalizing the average of positive control compound treated wells to 0% and the average of DMSO (negative control) wells to 100%. Collaborative Drug Discovery software was used for graphing data.

human SLC6A19 [2] = target: T1, human SLC6A19; assay: Example B2: 13C6,15N-isoleucine uptake, RapidFire mass spectrometry, in CHO cells with doxycycline-inducible expression of human SLC6A19 and TMEM27; assay type: cell-based; settings: read-out: SLC6A19_RapidFire Uptake Assay IC50
In short: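 Labelled isoleucine (13C6,15N; 2 mM added) was given 20 min at 37 °C, following a 20-min compound pre-treatment (10-point 2-fold series, duplicate). Cells were doxycycline-induced CHO co-expressing human SLC6A19 and TMEM27. Intracellular label was quantified by RapidFire-MS peak areas against a 13C-leucine standard.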

| Structure (SMILES) | IC50 (human SLC6A19 [1]) [µM] | IC50 (human SLC6A19 [2]) [µM] |
| --- | --- | --- |
| CC(=O)N1C[C@@H](N(C)C(=O)NCc2cc3cc(Cl)ccc3[nH]2)CC[C@H]1C (single isomer, unassigned) [Compound 193, 1-((3S,6R or 3R,6S)-1-acetyl-6-methylpiperidin-3-yl)-3-((5-chloro-1H-indol-2-yl)methyl)-1-methylurea] | > 50 | > 50 |
| CCN(C(=O)NCc1cc2cc(Cl)c(OCc3ccon3)cc2[nH]1)[C@@H]1CCCN(C(C)=O)C1 [Compound 137, (R)-1-(1-acetylpiperidin-3-yl)-3-((5-chloro-6-(isoxazol-3-ylmethoxy)-1H-indol-2-yl)methyl)-1-ethylurea] | 0.359 | 0.273 |
| CC(=O)N1CCC[C@@H](N(C)C(=O)NCc2cc3cc(Cl)ccc3[nH]2)C1 [Compound 147, (R)-1-(1-acetylpiperidin-3-yl)-3-((5-chloro-1H-indol-2-yl)methyl)-1-methylurea] | 0.183 | 0.195 |
| CCN(C(=O)NCc1cc2cc(Cl)ccc2[nH]1)[C@@H]1CCCN(C(C)=O)C1 [Compound 163, (R)-1-(1-acetylpiperidin-3-yl)-3-((5-chloro-1H-indol-2-yl)methyl)-1-ethylurea] | 0.145 | 0.0494 |
| Cc1ocnc1C(=O)N1CCC[C@@H](N(C)C(=O)NCc2cc3cc(Cl)ccc3[nH]2)C1 [Compound 187, (R)-3-((5-chloro-1H-indol-2-yl)methyl)-1-methyl-1-(1-(5-methyloxazole-4-carbonyl)piperidin-3-yl)urea] | 1.23 | 2.77 |
| CN(C(=O)NCc1cc2cc(Cl)ccc2[nH]1)[C@@H]1CCCN(C(=O)Cc2ccncc2)C1 [Compound 188, (R)-3-((5-chloro-1H-indol-2-yl)methyl)-1-methyl-1-(1-(2-(pyridin-4-yl)acetyl)piperidin-3-yl)urea] | 0.656 | 0.947 |
| CN(C(=O)NCc1cc2cc(Cl)ccc2[nH]1)[C@@H]1CCCN(C(=O)c2ccc(O)cc2)C1 [Compound 189, (R)-3-((5-chloro-1H-indol-2-yl)methyl)-1-(1-(4-hydroxybenzoyl)piperidin-3-yl)-1-methylurea] | 0.264 | 0.38 |
| CN(C(=O)NCc1cc2cc(Cl)ccc2[nH]1)[C@@H]1CCCN(C(=O)c2cccc(O)c2)C1 [Compound 190, (R)-3-((5-chloro-1H-indol-2-yl)methyl)-1-(1-(3-hydroxybenzoyl)piperidin-3-yl)-1-methylurea] | 0.483 | 0.578 |
| CN(C(=O)NCc1cc2cc(Cl)ccc2[nH]1)[C@@H]1CCCN(C(=O)c2ccn[nH]2)C1 [Compound 191, (R)-1-(1-(1H-pyrazole-5-carbonyl)piperidin-3-yl)-3-((5-chloro-1H-indol-2-yl)methyl)-1-methylurea] | 0.151 | 0.312 |

Continued, values first:

| IC50 (human SLC6A19 [1]) [µM] | IC50 (human SLC6A19 [2]) [µM] | Structure (SMILES) |
| --- | --- | --- |
| 2.17 | 4.87 | CC(=O)N1CC[C@@H](C)[C@@H](N(C)C(=O)NCc2cc3cc(Cl)ccc3[nH]2)C1 (racemic) [Compound 203, 1-((3R,4R and 3S,4S)-1-acetyl-4-methylpiperidin-3-yl)-3-((5-chloro-1H-indol-2-yl)methyl)-1-methylurea] |
| 0.262 | 0.153 | CC(=O)N1C[C@@H](C)C[C@@H](N(C)C(=O)NCc2cc3cc(Cl)ccc3[nH]2)C1 (racemic) [Compound 243, 1-((3R,5S and 3S,5R)-1-acetyl-5-methylpiperidin-3-yl)-3-((5-chloro-1H-indol-2-yl)methyl)-1-methylurea] |
| 0.629 | 0.839 | CN(C(=O)NCc1cc2cc(Cl)ccc2[nH]1)[C@@H]1CCCN(C(=O)C2CC(O)C2)C1 (stereo partly drawn) [Compound 119, (R)-3-((5-chloro-1H-indol-2-yl)methyl)-1-(1-(3-hydroxycyclobutane-1-carbonyl)piperidin-3-yl)-1-methylurea] |
| 0.574 | 0.949 | CN(C(=O)NCc1cc2cc(Cl)ccc2[nH]1)[C@@H]1CCCN(C(=O)CC2CCC2)C1 [Compound 120, (R)-3-((5-chloro-1H-indol-2-yl)methyl)-1-(1-(2-cyclobutylacetyl)piperidin-3-yl)-1-methylurea] |
| 0.28 | 0.405 | CN(C(=O)NCc1cc2cc(Cl)ccc2[nH]1)[C@@H]1CCCN(C(=O)C2CC(CO)C2)C1 (stereo partly drawn) [Compound 121, (R)-3-((5-chloro-1H-indol-2-yl)methyl)-1-(1-(3-(hydroxymethyl)cyclobutane-1-carbonyl)piperidin-3-yl)-1-methylurea] |
| 0.162 | 0.326 | CC(=O)N1CCC[C@@H](N(C)C(=O)NCc2cc3cc(Cl)c(OCc4cc(C)on4)cc3[nH]2)C1 [Compound 135, (R)-1-(1-acetylpiperidin-3-yl)-3-((5-chloro-6-((5-methylisoxazol-3-yl)methoxy)-1H-indol-2-yl)methyl)-1-methylurea] |
| 0.15 | 0.0806 | CNC(=O)N1CCC[C@@H](N(C)C(=O)NCc2cc3cc(Cl)ccc3[nH]2)C1 [Compound 171, (R)-3-(3-((5-chloro-1H-indol-2-yl)methyl)-1-methylureido)-N-methylpiperidine-1-carboxamide] |
| 0.197 | 0.242 | CN(C(=O)NCc1cc2cc(Cl)ccc2[nH]1)[C@@H]1CCCN(C(=O)Cc2ccno2)C1 [Compound 194, (R)-3-((5-chloro-1H-indol-2-yl)methyl)-1-(1-(2-(isoxazol-5-yl)acetyl)piperidin-3-yl)-1-methylurea] |
| 0.102 | 0.062 | CC(=O)N1CCC[C@@H](N(CC(F)(F)F)C(=O)NCc2cc3cc(Cl)ccc3[nH]2)C1 [Compound 195, (R)-1-(1-acetylpiperidin-3-yl)-3-((5-chloro-1H-indol-2-yl)methyl)-1-(2,2,2-trifluoroethyl)urea] |
| 1.16 |  | CN(C(=O)NCc1cc2cc(Cl)ccc2[nH]1)[C@@H]1CCCN(C(=O)Cc2cnoc2)C1 [Compound 246, (R)-3-((5-chloro-1H-indol-2-yl)methyl)-1-(1-(2-(isoxazol-4-yl)acetyl)piperidin-3-yl)-1-methylurea] |
